Measured values from paper PMC5418449, “Characterisation of CCT271850, a selective, oral and potent MPS1 inhibitor, used to directly measure in vivo MPS1 inhibition vs therapeutic efficacy” (British Journal of Cancer, 2017).
Where two headings read alike, the source gives them in different places.

How the values were obtained:
005B = test system: 005B; design: MTT antiproliferation assay, absorbance at 570 nm, human cancer cell line panel; details: 3-day MTT; inhibitor; read-out: Table S1. IC50 of CCT271850 determined by MTT and clonogenic assays (CA). / All cell lines were tested at least 2 times. / 3-day MTT
Procedure: (§1) Cell lines were obtained from the American Type Culture Collection and grown in their recommended culture medium, supplemented with 10% FBS at 37 °C in 5% CO2. In-house authentication of cell lines by SNP profiling was carried out and cultured cells were passaged for less than 6 months before replacement from early-passage frozen stocks. Cells were regularly screened for Mycoplasma, using a PCR-based assay (VenorGem; Minerva Biolabs, Berlin, Germany). Transfections were carried out at ∼80% confluency with the plasmids indicated, using Lipofectamine LTX (15338030, Life Technologies, Carlsbad, CA, USA) according to the manufacturer's instructions. Cell proliferation assays were carried out by colorimetric MTT method (Sigma, St Louis, MO, USA) as described elsewhere ([Mosmann, 1983]). Briefly, cells were plated in 96-well plates at 2000–5000 cells per well (depending on the cell line) followed by treatment with two-fold dilutions of 0–25 μM drug for 72 h. Absorbance was measured at 570 nm with the Wallac VICTOR2 1420 Multilabel Counter (PerkinElmer, Waltham, MA, USA). To evaluate CCT271850 antiproliferation effects in a large panel of human cancer cell lines, 91 cell lines were treated for 72 h and 14 days at different compound concentrations in growth inhibition assays. The growth inhibition values as measured by IC50 are summarised in Table 2 and Supplementary Table S1. […] Cell lines from colon and head and neck cancers were among the most sensitive.

011A = test system: 011A; design: MTT antiproliferation assay, absorbance at 570 nm, human cancer cell line panel; details: 3-day MTT; inhibitor; read-out: Table S1. IC50 of CCT271850 determined by MTT and clonogenic assays (CA). / All cell lines were tested at least 2 times. / 3-day MTT
Procedure: as §1

BxPC-3 = test system: BxPC-3; design: MTT antiproliferation assay, absorbance at 570 nm, human cancer cell line panel; details: 3-day MTT; inhibitor; read-out: Table S1. IC50 of CCT271850 determined by MTT and clonogenic assays (CA). / All cell lines were tested at least 2 times. / 3-day MTT
Procedure: as §1

CFPAC-1 = test system: CFPAC-1; design: MTT antiproliferation assay, absorbance at 570 nm, human cancer cell line panel; details: 3-day MTT; inhibitor; read-out: Table S1. IC50 of CCT271850 determined by MTT and clonogenic assays (CA). / All cell lines were tested at least 2 times. / 3-day MTT
Procedure: as §1

CaoV3 = test system: CaoV3; design: MTT antiproliferation assay, absorbance at 570 nm, human cancer cell line panel; details: 3-day MTT; inhibitor; read-out: Table S1. IC50 of CCT271850 determined by MTT and clonogenic assays (CA). / All cell lines were tested at least 2 times. / 3-day MTT
Procedure: as §1

Det562 = test system: Det562; design: MTT antiproliferation assay, absorbance at 570 nm, human cancer cell line panel; details: 3-day MTT; inhibitor; read-out: Table S1. IC50 of CCT271850 determined by MTT and clonogenic assays (CA). / All cell lines were tested at least 2 times. / 3-day MTT
Procedure: as §1

EF021 = test system: EF021; design: MTT antiproliferation assay, absorbance at 570 nm, human cancer cell line panel; details: 3-day MTT; inhibitor; read-out: Table S1. IC50 of CCT271850 determined by MTT and clonogenic assays (CA). / All cell lines were tested at least 2 times. / 3-day MTT
Procedure: as §1

HN15 = test system: HN15; design: MTT antiproliferation assay, absorbance at 570 nm, human cancer cell line panel; details: 3-day MTT; inhibitor; read-out: Table S1. IC50 of CCT271850 determined by MTT and clonogenic assays (CA). / All cell lines were tested at least 2 times. / 3-day MTT
Procedure: as §1

Hs766T = test system: Hs766T; design: MTT antiproliferation assay, absorbance at 570 nm, human cancer cell line panel; details: 3-day MTT; inhibitor; read-out: Table S1. IC50 of CCT271850 determined by MTT and clonogenic assays (CA). / All cell lines were tested at least 2 times. / 3-day MTT
Procedure: as §1

Kuramochi = test system: Kuramochi; design: MTT antiproliferation assay, absorbance at 570 nm, human cancer cell line panel; details: 3-day MTT; inhibitor; read-out: Table S1. IC50 of CCT271850 determined by MTT and clonogenic assays (CA). / All cell lines were tested at least 2 times. / 3-day MTT
Procedure: as §1

Lon-HN5 = test system: Lon-HN5; design: MTT antiproliferation assay, absorbance at 570 nm, human cancer cell line panel; details: 3-day MTT; inhibitor; read-out: Table S1. IC50 of CCT271850 determined by MTT and clonogenic assays (CA). / All cell lines were tested at least 2 times. / 3-day MTT
Procedure: as §1

O13 = test system: O13; design: MTT antiproliferation assay, absorbance at 570 nm, human cancer cell line panel; details: 3-day MTT; inhibitor; read-out: Table S1. IC50 of CCT271850 determined by MTT and clonogenic assays (CA). / All cell lines were tested at least 2 times. / 3-day MTT
Procedure: as §1

OAW28 = test system: OAW28; design: MTT antiproliferation assay, absorbance at 570 nm, human cancer cell line panel; details: 3-day MTT; inhibitor; read-out: Table S1. IC50 of CCT271850 determined by MTT and clonogenic assays (CA). / All cell lines were tested at least 2 times. / 3-day MTT
Procedure: as §1

OVCAR3 = test system: OVCAR3; design: MTT antiproliferation assay, absorbance at 570 nm, human cancer cell line panel; details: 3-day MTT; inhibitor; read-out: Table S1. IC50 of CCT271850 determined by MTT and clonogenic assays (CA). / All cell lines were tested at least 2 times. / 3-day MTT
Procedure: as §1

OVCAR5 = test system: OVCAR5; design: MTT antiproliferation assay, absorbance at 570 nm, human cancer cell line panel; details: 3-day MTT; inhibitor; read-out: Table S1. IC50 of CCT271850 determined by MTT and clonogenic assays (CA). / All cell lines were tested at least 2 times. / 3-day MTT
Procedure: as §1

OVCAR8 [1] = test system: OVCAR8; design: MTT antiproliferation assay, absorbance at 570 nm, human cancer cell line panel; details: 3-day MTT; inhibitor; read-out: Table S1. IC50 of CCT271850 determined by MTT and clonogenic assays (CA). / All cell lines were tested at least 2 times. / 3-day MTT
Procedure: as §1

PANC-1 = test system: PANC-1; design: MTT antiproliferation assay, absorbance at 570 nm, human cancer cell line panel; details: 3-day MTT; inhibitor; read-out: Table S1. IC50 of CCT271850 determined by MTT and clonogenic assays (CA). / All cell lines were tested at least 2 times. / 3-day MTT
Procedure: as §1

PATU-8902 = test system: PATU-8902; design: MTT antiproliferation assay, absorbance at 570 nm, human cancer cell line panel; details: 3-day MTT; inhibitor; read-out: Table S1. IC50 of CCT271850 determined by MTT and clonogenic assays (CA). / All cell lines were tested at least 2 times. / 3-day MTT
Procedure: as §1

PATU-8988T = test system: PATU-8988T; design: MTT antiproliferation assay, absorbance at 570 nm, human cancer cell line panel; details: 3-day MTT; inhibitor; read-out: Table S1. IC50 of CCT271850 determined by MTT and clonogenic assays (CA). / All cell lines were tested at least 2 times. / 3-day MTT
Procedure: as §1

PJ41 = test system: PJ41; design: MTT antiproliferation assay, absorbance at 570 nm, human cancer cell line panel; details: 3-day MTT; inhibitor; read-out: Table S1. IC50 of CCT271850 determined by MTT and clonogenic assays (CA). / All cell lines were tested at least 2 times. / 3-day MTT
Procedure: as §1

SKOV3 = test system: SKOV3; design: MTT antiproliferation assay, absorbance at 570 nm, human cancer cell line panel; details: 3-day MTT; inhibitor; read-out: Table S1. IC50 of CCT271850 determined by MTT and clonogenic assays (CA). / All cell lines were tested at least 2 times. / 3-day MTT
Procedure: as §1

SMOV2 = test system: SMOV2; design: MTT antiproliferation assay, absorbance at 570 nm, human cancer cell line panel; details: 3-day MTT; inhibitor; read-out: Table S1. IC50 of CCT271850 determined by MTT and clonogenic assays (CA). / All cell lines were tested at least 2 times. / 3-day MTT
Procedure: as §1

SW626 = test system: SW626; design: MTT antiproliferation assay, absorbance at 570 nm, human cancer cell line panel; details: 3-day MTT; inhibitor; read-out: Table S1. IC50 of CCT271850 determined by MTT and clonogenic assays (CA). / All cell lines were tested at least 2 times. / 3-day MTT
Procedure: as §1

Suit-2 = test system: Suit-2; design: MTT antiproliferation assay, absorbance at 570 nm, human cancer cell line panel; details: 3-day MTT; inhibitor; read-out: Table S1. IC50 of CCT271850 determined by MTT and clonogenic assays (CA). / All cell lines were tested at least 2 times. / 3-day MTT
Procedure: as §1

OVCAR8 [2] = test system: OVCAR8; design: 14-day clonogenic growth inhibition assay, human cancer cell line panel; details: 14-day clonogenic assay; inhibitor; read-out: Table S1. IC50 of CCT271850 determined by MTT and clonogenic assays (CA). / All cell lines were tested at least 2 times. / 14-day CA
Procedure: To evaluate CCT271850 antiproliferation effects in a large panel of human cancer cell lines, 91 cell lines were treated for 72 h and 14 days at different compound concentrations in growth inhibition assays. The growth inhibition values as measured by IC50 are summarised in Table 2 and Supplementary Table S1. […] Cell lines from colon and head and neck cancers were among the most sensitive.

**Q.** How did the IC50 (005B) turn out when `COc1cc(-c2cnn(C)c2)ccc1Nc1ncc2ccnc(N[C@@H](C)C(C)(C)C)c2n1` [34h, CCT271850] was run?
**A.** 440 nM

**Q.** What about the IC50 (011A) of the same molecule?
**A.** 1620 nM

**Q.** And the IC50 (BxPC-3)?
**A.** 525 nM

**Q.** What about the IC50 (CFPAC-1) of the same molecule?
**A.** 910 nM

**Q.** And the IC50 (CaoV3)?
**A.** 360 nM

**Q.** What about the IC50 (Det562) of the same molecule?
**A.** 1310 nM

**Q.** What about the IC50 (EF021) of the same molecule?
**A.** 751 nM

**Q.** And the IC50 (HN15)?
**A.** 1740 nM

**Q.** And the IC50 (Hs766T)?
**A.** 1900 nM

**Q.** What about the IC50 (Kuramochi) of the same molecule?
**A.** 4860 nM

**Q.** What about the IC50 (Lon-HN5) of the same molecule?
**A.** 325 nM

**Q.** What about the IC50 (O13) of the same molecule?
**A.** 1260 nM

**Q.** And the IC50 (OAW28)?
**A.** 1020 nM

**Q.** What about the IC50 (OVCAR3) of the same molecule?
**A.** > 100000 nM

**Q.** What about the IC50 (OVCAR5) of the same molecule?
**A.** 730 nM

**Q.** What about the IC50 (OVCAR8 [1]) of the same molecule?
**A.** 1230 nM

**Q.** What about the IC50 (PANC-1) of the same molecule?
**A.** 1380 nM

**Q.** What about the IC50 (PATU-8902) of the same molecule?
**A.** 510 nM

**Q.** And the IC50 (PATU-8988T)?
**A.** 665 nM

**Q.** What about the IC50 (PJ41) of the same molecule?
**A.** 520 nM

**Q.** And the IC50 (SKOV3)?
**A.** > 100000 nM

**Q.** And the IC50 (SMOV2)?
**A.** 795 nM

**Q.** What about the IC50 (SW626) of the same molecule?
**A.** 4210 nM

**Q.** And the IC50 (Suit-2)?
**A.** 435 nM

**Q.** And the IC50 (OVCAR8 [2])?
**A.** 101 nM
